Measured values: patent US20250161260A1, “USE OF DELTA-TOCOTRIENOL TO REDUCE THE PROGRESSION OF A NEOPLASM TO A CANCER” (H. LEE MOFFITT CANCER CENTER AND RESEARCH INSTITUTE, INC., priority 2022, published 2025)

Columns and labels:
IPMN neoplastic cells = experiment: IHC of cleaved caspase-3 and BAX in tumor specimens of patients treated with DT3; format: in vivo, human
Method: Lower panel is IHC stained for the pro-apoptotic protein Bax, illustrating the association of DT 3 induction of apoptosis with increased expression of Bax
(§1) DT3 has been widely used as a dietary supplement for its presumptive benefit in promoting health by decreasing serum cholesterol levels. […] In an NCI-sponsored phase 1 study (NCT00985777), we enrolled 9 out of 25 patients with IPMNs who were treated with DT3 for 2 weeks. […] In our IHC analyses of tumor specimens, we observed a significant induction of cleaved caspase-3 and BAX in the IPMN neoplastic cells of 7 of 9 patients (77%) treated at doses of 100 mg orally twice daily or higher (FIG. 1). We identified 400 mg BID as a Biological Effective Dose (BED) for DT3 in our phase I trial^33. Therefore, we propose to confirm DT3 activity on IPMNs at 400 mg twice daily in a phase II trial, since this was the most bioactive dose observed in our phase I trial.

LGKC2 cells [1] = experiment: Cell cycle analysis by flow cytometry, LGKC2; format: cell-based, murine; conditions: LGKC-2, IC50 dose, 48 h, double thymidine block
Method: (§2) LGKC1 (9A, 9C, 9E) and LGKC2 (9B, 9D, 9E) cells were treated with IC50 dose of DT 3 for 48 h. Apoptosis was measured by flow cytometry following annexin V and propidium iodide staining (9A, 9B). For cell cycle analysis by flow cytometry (9C, 9D) cells were synchronized with double thymidine block prior to treatment with DT 3. Following the treatment, cell lysates were prepared and impact on downstream signaling was performed by immunoblotting using the indicated antibodies (9E) and subjected to RNA sequencing (9F).
(§3) To determine if the reduced cell proliferation of IPMN cells by DT3 were due to its impact on cell cycle or cell death, we assayed apoptosis and cell cycle analysis by flow cytometry. […] RNA seq analysis of the treated cells further indicated significant upregulation of biological processes associated with programmed cell death, cell proliferation, immune response, and collagen fibril organization (FIG. 9F).

[2] = tested on: Wnt receptor activity in 3T3 cells; experiment: Wnt receptor activity (luciferase units) in 3T3 cells; format: cell-based; conditions: after Wnt3a
HPNE cells = experiment: Apoptosis (C-PARP) in HPNE cells; format: cell-based
[3] = tested on: β-catenin expression in HPNE-Kras cells; experiment: β-catenin expression in HPNE-Kras cells; format: cell-based
LGKC1 cells [4] = experiment: Cell proliferation by MTT assay, LGKC1; format: cell-based, murine; conditions: LGKC1, 48 h
Method: (§4) LGKC1 (left) and LGKC2 cells were treated with varying doses of DT3 for 24, 48, and 72 h and cell proliferation were measured by MTT assay.
(§5) We further studied the effect of DT3 on the proliferation of recently described murine IPMN cell lines LGKC1 & LGKC2 derived from constitutively active Kras and Gnas murine model of pancreatic cystic lesions [p48-Cre; KrasG12D; Rosa26R-rtTA-TetO-GnasR201C]. […] These IC50 doses were used for downstream functional studies in LGKC1 and LGKC2 cell lines.

LGKC1 cells [5] = experiment: Immunoblotting of downstream signaling, LGKC1; format: cell-based, murine; conditions: LGKC1, IC50 dose
Method: as §2, §3

LGKC2 cells [6] = experiment: Cell proliferation by MTT assay, LGKC2; format: cell-based, murine; conditions: LGKC2, 48 h
Method: as §4, §5

[7] = human, in vivo
Method: as §1

LGKC2 cells [8] = experiment: Immunoblotting of downstream signaling, LGKC2; format: cell-based, murine; conditions: LGKC2, IC50 dose
Method: as §2, §3

[9] = tested on: β-catenin expression in 3T3 cells; experiment: β-catenin expression in 3T3 cells; format: cell-based
LGKC1 cells [10] = experiment: Apoptosis by flow cytometry (annexin V / propidium iodide), LGKC1; format: cell-based, murine; conditions: LGKC1, IC50 dose, 48 h
Method: as §2, §3

HPNE-Kras cells = experiment: Apoptosis (C-PARP) and signaling protein expression in HPNE-Kras cells; format: cell-based
LGKC1 cells [11] = experiment: Cell cycle analysis by flow cytometry, LGKC1; format: cell-based, murine; conditions: LGKC-1, IC50 dose, 48 h, double thymidine block
Method: as §2, §3

LGKC2 cells [12] = experiment: Apoptosis by flow cytometry (annexin V / propidium iodide), LGKC2; format: cell-based, murine; conditions: LGKC2, IC50 dose, 48 h
Method: as §2, §3

[13] = tested on: β-catenin expression in PCSCs; experiment: β-catenin expression in human PC stem cells (PCSCs); format: cell-based; conditions: less inhibition with DT 3 without Wnt3a pretreatment
[14] = 100 mg orally twice daily or higher, 2 weeks

CC(C)=CCC/C(C)=C/CC/C(C)=C/CC[C@]1(C)CCc2cc(O)cc(C)c2O1 [DT3, δ-tocotrienol]
patients with significant induction of cleaved caspase-3 and BAX in IPMN neoplastic cells (IPMN neoplastic cells; [14]): 7 of 9
percent of patients with significant induction of cleaved caspase-3 and BAX in IPMN neoplastic cells (IPMN neoplastic cells; [14]): 77%
apoptosis as measured by cleaved caspase-3 expression (IHC) (IPMN neoplastic cells; patients with IPMN): significantly induced apoptosis
cell cycle progression (LGKC2 cells [1]): no effect on cell cycle progression
agonist (Wnt3a)-induced Wnt receptor activity (luciferase units) [2]: significantly inhibited
apoptosis (C-PARP) (HPNE cells): not in HPNE cells
β-catenin expression [3]: abolished
IC50 (LGKC1 cells [4]): 25.3 µM
expression of b-catenin (LGKC1 cells [5]): no effect
p-AKT, p-ERK1/2, cyclin D1 (LGKC1 cells [5]): significant reduction
pGSK3β and cleaved PARP (LGKC1 cells [5]): upregulation
IC50 (LGKC2 cells [6]): 29.4 µM
half-life [7]: approximately 4 hours
toxicity (dose-limiting toxicities, drug-related adverse events, postoperative complications) [7]: no evidence of toxicity
expression of b-catenin (LGKC2 cells [8]): no effect
p-AKT, p-ERK1/2, cyclin D1 (LGKC2 cells [8]): significant reduction
pGSK3β and cleaved PARP (LGKC2 cells [8]): upregulation
Wnt agonist-induced β-catenin expression [9]: inhibited
apoptosis (LGKC1 cells [10]): induced apoptosis
apoptosis (C-PARP) (HPNE-Kras cells): selectively induced apoptosis
expression of MUC4, MUC16, β-catenin and downstream proteins (C-myc, cyclin D1, survivin) (HPNE-Kras cells): decreased the expression
pAKT and pERK (HPNE-Kras cells): inhibited
cell cycle progression (LGKC1 cells [11]): G2/M arrest and accumulation of cells in S-phase
apoptosis (LGKC2 cells [12]): induced apoptosis
β-catenin expression [13]: abolished

B1: DKK1: Wnt antagonist (protein, UniProt O94907 32-266, looked up)
Dickkopf-related protein 1: TLNSVLNSNAIKNLPPPLGGAAGHPGSAVSAAPGILYPGGNKYQTIDNYQPYPCAEDEECGTDEYCASPTRGGDAGVQICLACRKRRKRCMRHAMCCPGNYCKNGICVSSDQNHFRGEIEETITESFGNDHSTLDGYSRRTTLSSKMYHTKGQEGSVCLRSSDCASGLCCARHFWSKICKPVLKEGQVCTKHRRKGSHGLEIFQRCYCGEGLSCRIQKDHHQASNSSRLHTCQRH
agonist (Wnt3a)-induced Wnt receptor activity (luciferase units) [2]: inhibited
β-catenin expression [3]: abolished
Wnt agonist-induced β-catenin expression [9]: inhibited
β-catenin expression [13]: abolished
